Measured values reported in patent publication US20190262321A1, “METHODS OF TREATING DIABETIC NEPHROPATHY USING HPTPB INHIBITORS” (Aerpio Therapeutics, Inc., priority 2018, published 2019).

Key:
[1] = system: human subjects; assay: Assessment of renal function indices (UACR) in subjects treated with compound AA34; format: in vivo; conditions: for % Change in Geometric Mean (UACR): baseline to end of treatment (three months), patients with albuminuria at baseline
Method: The human subjects treated with compound AA34 were administered 15 mg of the compound subcutaneously twice a day for three months. One group of subjects received the compound and ranibizumab (RBZ; 0.3 mg monthly via intraocular injection), while the other group received only the compound with a sham intraocular injection. The subjects in the placebo arm received a placebo subcutaneously twice a day along with ranibizumab. […] Within the subjects that had albuminuria, 30% had microalbuminuria (>30 mg/g and <300 mg/g UACR) and 20% had macroalbuminuria (>300 mg/g UACR).
The results of the study are shown in FIG. 2 and TABLE 2 as the % change from baseline to end of treatment (three months) in geometric mean +95% confidence interval in the patients with albuminuria at baseline.

[2] = system: Male C57BL6 mice; assay: Endotoxin (LPS)-induced acute kidney injury: serum BUN and kidney histology; format: in vivo
Method: (§1) Male C57BL6 mice, 9-10 weeks old, were injected i.p. with 0.2 mg E. coli LPS per 25 g body weight. The mice were injected with compound AA34 (50 mg/kg, 50 μL) or the vehicle (50 μL) at the time of lipopolysaccharide (LPS) injection, 8 after LPS injection, and 16 hours after LPS injection. The mice were sacrificed 24 h after the LPS injection. The saline-injected mice were studied in parallel as controls. Serum samples from the mice were analyzed for BUN as a marker of kidney function.

[3] = system: Tie2; assay: Immunoprecipitation of kidney homogenate for Tie2 phosphorylation after LPS; format: in vivo, mice
Method: Male C57BL6 mice, 9-10 weeks old, were injected i.p. with 0.2 mg E. coli LPS per 25 g body weight. The mice were injected with compound AA34 (50 mg/kg, 50 μL) or the vehicle (50 μL) at the time of lipopolysaccharide (LPS) injection, 8 after LPS injection, and 16 hours after LPS injection. The mice were sacrificed 24 h after the LPS injection. The saline-injected mice were studied in parallel as controls. Immunoprecipitation of kidney homogenate was performed to analyze the extent of Tie2 phosphorylation in the drug versus vehicle groups. Immunoprecipitation of kidney homogenate was completed using anti-Tie2 Ab, which was probed using anti-phosphotyrosine Ab. Total Tie2 levels were equal in the drug-treated and vehicle-treated groups after being injected with LPS.

[4] = system: Male C57BL6 mice; assay: Renal apoptosis after LPS (DNA laddering, TUNEL staining); format: in vivo; conditions: versus vehicle
Method: as §1, with “Apoptosis was detected in kidney homogenate using DNA laddering, which is” for “Serum samples from”, “result” for “mice were analyzed for BUN as a marker”, “apoptotic DNA fragmentation. […] Terminal deoxynucleotidyl transferase dUTP nick end labeling (TUNEL) staining was used to visualize the presence of apoptotic nuclei.” for “kidney function.”

[5] = system: Male C57BL6 mice; assay: LPS-induced renal neutrophil infiltration; format: in vivo; conditions: 24 h after LPS injection
Method: (§2) Male C57BL6 mice, 9-10 weeks old, were injected i.p. with 0.2 mg E. coli LPS per 25 g body weight. The mice were injected with compound AA34 (50 mg/kg, 50 μL) or the vehicle (50 μL) at the time of lipopolysaccharide (LPS) injection, 8 after LPS injection, and 16 hours after LPS injection. The mice were sacrificed 24 h after the LPS injection. The saline-injected mice were studied in parallel as controls.

[6] = system: TNFR1; assay: RT-PCR of kidney homogenate after LPS: TNFR1; format: in vivo, mice; conditions: versus vehicle
Method: as §2, with “controls. Phosphatase inhibition by compound AA34 reduced renal mRNA expression of various mediators of inflammation and coagulation, as shown in FIG. 8. The kidneys of the mice were analyzed for RNA level expression of various inflammatory mediators. […] TNFR1, PAI-1, and tissue factor were expressed mainly in the endothelium, the site of Tie2 expression.” for “controls.”

[7] = system: plasminogen activator inhibitor-1 (PAI-1); assay: RT-PCR of kidney homogenate after LPS: PAI-1; format: in vivo, mice; conditions: versus vehicle
Method: as §2, with “controls. Phosphatase inhibition by compound AA34 reduced renal mRNA expression of various mediators of inflammation and coagulation, as shown in FIG. 8. The kidneys of the mice were analyzed for RNA level expression of various inflammatory mediators. […] TNFR1, PAI-1, and tissue factor were expressed mainly in the endothelium, the site of Tie2 expression.” for “controls.”

[8] = system: tissue factor; assay: RT-PCR of kidney homogenate after LPS: tissue factor; format: in vivo, mice; conditions: versus vehicle
Method: as §2, with “controls. Phosphatase inhibition by compound AA34 reduced renal mRNA expression of various mediators of inflammation and coagulation, as shown in FIG. 8. The kidneys of the mice were analyzed for RNA level expression of various inflammatory mediators. […] TNFR1, PAI-1, and tissue factor were expressed mainly in the endothelium, the site of Tie2 expression.” for “controls.”

[9] = system: inducible nitric oxide synthase (iNOS); assay: RT-PCR of kidney homogenate after LPS: iNOS; format: in vivo, mice; conditions: versus vehicle
Method: as §2, with “controls. Phosphatase inhibition by compound AA34 reduced renal mRNA expression of various mediators of inflammation and coagulation, as shown in FIG. 8. The kidneys of the mice were analyzed for RNA level expression of various inflammatory mediators. […] TNFR1, PAI-1, and tissue factor were expressed mainly in the endothelium, the site of Tie2 expression.” for “controls.”

[10] = system: Male C57BL6 mice; assay: Renal vascular leak after LPS (fluorescent dextrans, tomato lectin); format: in vivo; conditions: 24 h after LPS
Method: as §2, with “controls. Mice were injected with LPS and drug (compound AA34) versus the vehicle (LPS only). 2 min prior to sacrificing the animals at 24 h, the mice were injected with 70 kDa and 500 kDa fluorescent fixable dextrans by intravenous catheter.” for “controls.”

[11] = Baseline UACR 30-300 mg/g (n 31)

SMILES: COC(=O)N[C@@H](Cc1ccccc1)C(=O)N[C@@H](Cc1ccc(NS(=O)(=O)O)cc1)c1csc(-c2cccs2)n1 [AA34]
- shift analysis: subjects with UACR 30-300 at Month 3/EOT [1, 11]: 25 (81%)
- shift analysis: subjects with UACR <30 at Month 3/EOT [1, 11]: 4 (13%)
- shift analysis: subjects with UACR >300 at Month 3/EOT [1, 11]: 2 (6%)
- shift analysis: subjects with UACR 30-300 at Month 3/EOT ([1]; Baseline UACR <30 mg/g (n 43)): 2 (5%)
- shift analysis: subjects with UACR <30 at Month 3/EOT ([1]; Baseline UACR <30 mg/g (n 43)): 41 (95%)
- shift analysis: subjects with UACR >300 at Month 3/EOT ([1]; Baseline UACR <30 mg/g (n 43)): 0
- shift analysis: subjects with UACR 30-300 at Month 3/EOT ([1]; Baseline UACR >300 mg/g (n 18)): 1 (6%)
- shift analysis: subjects with UACR <30 at Month 3/EOT ([1]; Baseline UACR >300 mg/g (n 18)): 1 (6%)
- shift analysis: subjects with UACR >300 at Month 3/EOT ([1]; Baseline UACR >300 mg/g (n 18)): 16 (89%)
- % Change in Geometric Mean (UACR) ([1]; 15 mg subcutaneously twice a day): −17.7%
- % Change in Geometric Mean (UACR) ([1]; 15 mg subcutaneously twice a day, listed as All Compound): −21.2%
- reduction in the UACR compared to patients receiving placebo ([1]; three months, 15 mg subcutaneously twice a day): ~20%
- morphologic tubular injury (histology) ([2]; 24 h after LPS injection, drug versus vehicle): less morphologic tubular injury
- LPS-induced rise in BUN ([2]; serum, 24 h after LPS, 50 mg/kg at 0, 8 and 16 hours, versus vehicle, p=0.002): statistically reduced
- tyrosine phosphorylated Tie2 in kidney homogenate ([3]; LPS+Compound AA34 versus LPS+vehicle, 8 h after the last dose): increased levels
- Total Tie2 levels in kidney homogenate ([3]; drug-treated versus vehicle-treated groups after LPS): equal
- DNA laddering (apoptosis) in kidney homogenate [4]: less DNA laddering
- apoptosis (TUNEL staining of apoptotic nuclei) [4]: less apoptosis
- reduction of renal neutrophil infiltration [5]: over 50%
- reduction of renal mRNA expression of TNFR1 [6]: about 6 fold
- reduction of renal mRNA expression of PAI-1 [7]: about 5 fold
- reduction of renal mRNA expression of tissue factor [8]: about 0.8 fold
- reduction of renal mRNA expression of iNOS [9]: about 1.5 fold
- LPS-induced extrusion of dye beyond the small peritubular capillaries (vascular leak) ([10]; 70 kDa and 500 kDa fluorescent fixable dextrans): markedly reduced
- tomato lectin staining of peritubular capillaries (vascular integrity) [10]: relatively preserved
